{"source": "patent US12312359B2", "about": "(Vitae Pharmaceuticals, LLC, priority 2016, dated 2025)", "key": {"[1]": {"conditions": "from 5 to 95% RH", "method": "Moisture sorption/desorption data were collected on a VTI SGA-100 Vapor Sorption Analyzer. NaCl and PVP were used as calibration standards. Samples were not dried prior to analysis. Sorption and desorption data were collected over a range from 5% to 95% RH at 10% RH increments under a nitrogen purge. The equilibrium criterion used for analysis was less than 0.0100% weight change in 5 minutes with a maximum equilibration time of 3 hours. Data were not corrected for the initial moisture content of the samples."}, "[2]": {"test": "Physical stability analysis of sesquifumaric acid salt forms (drying, heating)", "assay_type": "physicochemical"}}, "data": [{"smiles": "CC(C)N(C(=O)c1cc(F)ccc1Oc1cncnc1N1CC2(CCN(CC3CCC(NS(C)(=O)=O)CC3)CC2)C1)C(C)C.CC(C)N(C(=O)c1cc(F)ccc1Oc1cncnc1N1CC2(CCN(CC3CCC(NS(C)(=O)=O)CC3)CC2)C1)C(C)C.O.O.O=C(O)/C=C/C(=O)O.O=C(O)/C=C/C(=O)O.O=C(O)/C=C/C(=O)O", "note": "(stereo not shown) [Form A, 5-fluoro-N,N-diisopropyl-2-((4-(7-(((1r,4r)-4-(methylsulfonamido)cyclohexyl)methyl)-2,7-diazaspiro[3.5]nonan-2-yl)pyrimidin-5-yl)oxy)benzamide sesquifumaric acid salt monohydrate]", "values": [{"measurement": "DVS weight gain", "setting": "[1]", "value": 0.92, "unit": "%"}, {"measurement": "Observation (weight change)", "setting": "[2]; 70° C. vacuum 3 days", "value": "no weight change"}, {"measurement": "Result (solid form after physical stability stress)", "setting": "[2]; 70° C. vacuum 3 days", "value": "Form A + peaks"}, {"measurement": "Result (solid form after physical stability stress)", "setting": "[2]; 95° C., under N2, 2 days", "value": "Form A"}, {"measurement": "Observation (LOD)", "setting": "[2]; 105° C. 3 days", "value": 20, "unit": "% LOD"}, {"measurement": "Result (solid form after physical stability stress)", "setting": "[2]; 105° C. 3 days", "value": "Form A"}, {"measurement": "Observation (weight change)", "setting": "[2]; ambient vacuum 3 days", "value": "no weight change"}, {"measurement": "Result (solid form after physical stability stress)", "setting": "[2]; ambient vacuum 3 days", "value": "Form A"}, {"measurement": "Form change in variable temperature (VT)-XRPD", "setting": "[2]; heating, XRPD pattern at 165° C.", "value": "No form change observed"}, {"measurement": "Changes upon vacuum drying or heating", "setting": "[2]; vacuum drying or heating", "value": "No changes"}]}]}
